# Data as given in patent US12377069B2, “Compounds, compositions, methods of using, and methods for preparing compounds” (UNIVERSITY OF LOUISVILLE RESEARCH FOUNDATION, INC., priority 2018, dated 2025).
# Columns and labels:
# Nrf2 = Nrf2 reporter (ARE-luciferase) assay; format: cell-based, human; details: HT29, 50 μM, 24 h
# Protocol: Nrf2-Reporter assay: ARE-luciferase plasmid vector was obtained from Cayman Chemicals. HT29 cells were transfected at 50% confluency using lipofectamine 3000 reagent (ThermoFisher Scientific). Briefly, cells were seeded in 6-well plates (0.5×10^6 cells) and grown for 24 h. The transfection complex containing 1 μg of plasmid DNA and transfection reagent was added to each well in absence of FBS. After 6 hr medium containing 10% FBS was added and cells were incubated for another 16-18 hr. These cells were treated with vehicle (0.01% DMSO) or UroA (50 μM) or UAS03 (50 μM) or sulforaphane (10 μM) for 24 h. After incubation with inducers, cells were lysed and firefly luciferase activities (luminiscence) were measured with Luciferase Assay System (Promega) using multiwell plate luminometer (BMG, LABTECH).
# Caco-2 monolayer cells = assay: Caco2 monolayer TEER and FITC-dextran permeability (EtOH, LPS, HMGB1); format: cell-based, human; details: for TEER / Ocln expression: EtOH 350 mM (2%); for TEER: 10, 25, 50 μM pre-treatment 24 h; for Ocln expression: 10, 25, 50 μM, 24 h
# Protocol: FIG. 13: Caco2 cells were grown as monolayer on transwell membrane filters. (A) Cells were treated with 40 mM EtOH and FITC-dextran permeability was performed in time dependent manner. (B-F) Cells were treated with respective Urolithins (50 μM) and Ellagic acid (50 μM) or different doses of UroA (B) for 24 hrs. After treatments, cells were treated with ethanol (40 mM) (B, D) or 400 mM (E, F), LPS (100 ng/mL), HMGB1 (500 ng/mL) for 2 hrs and washed with PBS. FITC-Dex (1 mg/mL) solution was added (100 μl) on apical side. Permeability of FITC-Dex across the monolayer as well as TEER values were measured after 2 hr. […] Confocal images of TJ proteins staining. Statistics performed using unpaired t-test. *p<0.05, **p<0.01, *** p<0.001, Error bars, ±SEM.
# Caco2 cells on transwell membrane were pre-treated with vehicle or UroA or UAS03 (10, 25, 50 μM) for 24 h followed by addition of alcohol (2%) for 24 h. TEER values (A) and the FITC-dextran permeability assay (B) was performed as described in FIG. 2. Statistics performed using unpaired t-test using Graphpad Prism software. Error bars, ±SEM; ***p<0.001; **p<0.01. (C) Caco2 cells were treated with alcohol (EtOH) (350 mM or 2%) in the presence or with UroA or UAS03 (10, 25, 50 μM) for 24 h and determined expression of Ocln by Western blots. Representative of 3 independent blots was shown.
# UroA upregulate TJ proteins and protect against EtOH induced damage. […] For this purpose, we utilized Caco-2 monolayer cells on transwell membranes and performed transepithelial electrical resistance (TEER) and FITC-dextran permeability assays. […] Gut barrier dysfunction leads to elevated intestinal permeability thus increasing circulating levels of endotoxins. Endotoxins such as LPS (representative for PAMP) and HMGB1 (representative for DAMP) induce several inflammatory cytokines, chemokines and ROS leading to further enhancement of systemic inflammation to promote pathogenesis of ALD.
# We tested whether UAS03 could protect against higher dose of EtOH (350 mM) induced barrier dysfunction in Caco2 monolayer cells.
# NF-κB = NF-κB EMSA assay; format: cell-based, mouse; details: LPS 50 ng/mL, 6 hr
# Protocol: NF-κB EMSA assay: RAW 264.7 cells or BMDM were plated in 100 mm dishes (1×10^6) in DMEM supplemented with 10% fetal bovine serum (FBS), 100 U/ml penicillin, and […]. Cells were allowed to grow for 24 hr and after incubation, cells were treated with LPS (50 ng/mL) with and without UroA (50 μM) and UAS03 (50 μM) for 6 hr. After treatments, culture medium was removed and washed with PBS. Cells were scraped and pelleted down in PBS. Supernatant was discarded and pellet was used for isolation of nuclear and cytosolic protein using NE-PER Nuclear and Cytoplasmic kit (Thermo Scientific; Cat #78833). Later nuclear protein (2 μg) was used for EMSA using Non-Radioactive EMSA Kits with IR Fluo-Probes for Nuclear factor kappa B p65 (Viagene Biotech Inc Cat #IRTF282 60).
# AhR = AhR nuclear translocation; format: cell-based, human; details: HT29, 50 μM
# Protocol: Confocal Imaging: HT29 or CaCo2 or BMDM cells (50,000 cells/well) were plated on to 8-well chambered slides (154534PK; ThermoFisher Scientific) allowed them to grow overnight. The cells were induced with vehicle (0.01% DMSO) or UroA (50 μM) or UAS03 (50 μM) for desired time points and fixed with cold methonol. The AhR or Nrf2 or Cldn4 stained with respective antibodies (1:200 dilution) followed by fluorecently labelled (Alexa flour 594 for AhR and Alexa flour 488 for Nrf2 and Cldn4) secondary ab (1:500 dilution; ThermoFisher Scientific). The nucleus was stained with DAPI (Sigma Aldrich). The confocal images were captured using Nikon AIR confocal microscope using 60× magnification lense with appropriate laser channels.
# C57BL/6 mice = assay: DSS-induced chronic colitis; format: in vivo, mouse; details: 4 cycles of 2% DSS; for colon weight/length ratio / expression of Cldn4 in colons / inflammation (serum IL-6, IL-10, TNF-α, colonic tissue MPO levels) / shortening of colons: 20 mg/kg/day; for DSS-induced chronic colitis: 20 mg/kg/day on 4th and 6th day of each cycle
# Caco2 cells = assay: LPS depletion of Ocln in colon epithelial cells; format: cell-based, human; details: 10, 25, 50 μM, 24 h
# Protocol: FIG. 12: UroA/UAS03 protect from LPS or alcohol induced depletion of Ocln and protected permeability. (A) Caco 2 cells were treated with LPS for 24 h at indicated doses and Western blots performed to determine expression of Ocln. (B) Caco2 cells were treated with LPS in combination with UroA or UAS03 (10, 25, 50 μM) for 24 h and determined Ocln expression.
# UroA/UAS03 upregulate TJ proteins and protect against LPS induced damage: TJ proteins such as Cldn4, ZO-1, Ocln play a role in maintaining the gut epithelial integrity and protect the gut from external insults such as LPS. We investigated UroA/UAS03 effects on TJ protein regulation in colon epithelial cells, HT-29 and Caco2 cells. […] ALD is associated with disrupted TJs, increased permeability, inflammation and endotoxemia. Ocln is a tight junction protein expressed in intestinal epithelium and plays a role in maintenance of gut barrier function. We examined whether UroA/UAS03 can protect LPS (endotoxin) depletion of Ocln in colon epithelial cells. […] For this purpose, we have utilized Caco-2 monolayer cells on transwell membranes and performed transepithelial electrical resistance (TEER) and FITC-dextran permeability assays.
SMILES,ARE-luciferase luminescence (Nrf2),TEER (Caco-2 monolayer cells),Ocln expression (Caco-2 monolayer cells),LPS-induced NF-κB activation in macrophages (NF-κB),nuclear translocation of AhR (AhR),colon weight/length ratio (C57BL/6 mice),expression of Cldn4 in colons (C57BL/6 mice),"inflammation (serum IL-6, IL-10, TNF-α, colonic tissue MPO levels) (C57BL/6 mice)",shortening of colons (C57BL/6 mice),DSS-induced chronic colitis (C57BL/6 mice),LPS depletion of Ocln (Caco2 cells),TEER values (Caco-2 monolayer cells; EtOH 400 mM),"EtOH induced damage of tight junction proteins (ZO-1, Ocln) (Caco-2 monolayer cells; Western blots, confocal images)"
"Oc1ccc2c(c1)COc1cc(O)ccc1-2 [UAS03, 6H-benzo[c]chromene-3,8-diol]",enhanced luminescence,increased TEER,increased TJ protein,reduced the NF-κB activation,induced the nuclear translocation,increased colon weight/length ratio,enhanced the expression of Cldn4,reduced inflammation,reduced shortening of colons,protected from DSS-induced colitis,protected from depletion of Ocln,,
"O=c1oc2cc(O)ccc2c2ccc(O)cc12 [UroA, 3,8-dihydroxy-6H-dibenzo[b,d]pyran-6-one]",enhanced luminescence,increased TEER,increased TJ protein,reduced the NF-κB activation,induced the nuclear translocation,increased colon weight/length ratio,enhanced the expression of Cldn4,reduced inflammation,reduced shortening of colons,protected from DSS-induced colitis,protected from depletion of Ocln,enhanced TEER values,protects against EtOH induced damage of tight junction proteins
